Reference: ChEMBL document CHEMBL5226350, “NSAIDs: Old Acquaintance in the Pipeline for Cancer Treatment and Prevention─Structural Modulation, Mechanisms of Action, and Bright Future” (J Med Chem, 2021)

How the values were obtained:
[1] = system: HT-29; experiment: Antitumor activity against human HT-29 cells xenografted in ip dosed mouse assessed as reduction in tumor volume measured after 21 days relative to control; type: functional; design: scale not given: the % may be the effect or the level left; conditions: time 21 day
[2] = system: HT-29; experiment: Antitumor activity against human HT-29 cells xenografted in sc dosed Apc/Min mouse assessed as reduction in tumor growth in presence of DFMO relative to control; type: functional
[3] = system: HT-29; experiment: Antitumor activity against human HT-29 cells expressing Trx-1 xenografted in sc dosed mouse assessed as reduction in tumor volume in presence of DFMO by immunohistochemical staining based analysis relative to control; type: functional; design: scale not given: the % may be the effect or the level left
[4] = system: HT-29; experiment: Antitumor activity against human HT-29 cells expressing Trx-1 xenografted in sc dosed mouse in presence of DFMO by immunohistochemical staining based analysis relative to control; type: functional
[5] = system: A549; experiment: Antitumor activity against human A549 cells xenografted in ip dosed mouse assessed as tumor growth inhibition at 200 mg/kg measured after 6 weeks relative to control; type: functional; design: scale not given: the % may be the effect or the level left
[6] = system: U-118-MG; experiment: Antitumor activity against human U-118-MG cells xenografted in sc dosed BALB/c mouse assessed as tumor growth inhibition at 20 mg/kg measured after 29 days relative to control; type: functional; conditions: 696 h, time 29 day, read-out: TGI
[7] = system: PANC-1; experiment: Antitumor activity against human PANC-1 cells xenografted in po dosed BALB/c mouse assessed as tumor growth inhibition measured after 30 days relative to control; type: functional; conditions: time 30 day
[8] = system: Mus musculus; experiment: Inhibition of pancreatitis-accelerated acinar-to-ductal metaplasia in C57Bl/6J mouse harboring Kras G12D mutant at 100 mg/kg ,po administered via gavage measured after 3 weeks in presence of cerulein relative to control; type: toxicity, organism-based; conditions: 504 h
[9] = system: A-431; experiment: Antitumor activity against human A-431 cells xenografted in sc dosed mouse assessed as tumor growth inhibition measured after 15 days in presence of diclofenac relative to control; type: functional; conditions: time 15 day
[10] = system: HT-29; experiment: Antitumor activity against human HT-29 cells xenografted in sc dosed mouse assessed as reduction in tumor volume measured after 10 days relative to control; type: functional; design: scale not given: the % may be the effect or the level left; conditions: time 10 day

CCOP(=O)(OCC)OCc1cccc(OC(=O)c2ccccc2OC(C)=O)c1
Activity [1]: >60%

CCOP(=O)(OCC)OCCCCOC(=O)CC1=C(C)/C(=C/c2ccc([S+](C)[O-])cc2)c2ccc(F)cc21 (stereo not given)
TGI [2]: 90%
Activity [3]: 83%
Activity [4]: 50%

CCOP(=O)(OCC)OCCCCNC(=O)C(C)c1ccc(CC(C)C)cc1 (stereo not given)
Activity [5]: >95%

CCOP(=O)(OCC)OCC(CNC(=O)C(C)c1ccc(CC(C)C)cc1)OP(=O)(OCC)OCC (stereo not given)
inhibition in vivo at 20 mg/kg [6]: 77%

CCOP(=O)(OCC)OCC(COC(=O)c1ccccc1OC(C)=O)OP(=O)(OCC)OCC (stereo not given)
TGI [7]: 78%
inhibition at 100 mg/kg [8]: 83%

NCCCC(N)(C(=O)O)C(F)F (stereo not given) [EFLORNITHINE]
TGI [9]: 90%

O=C(CCCO[N+](=O)[O-])Oc1ccccc1C(=O)Oc1ccc(-c2cc(=S)ss2)cc1
Activity [10]: 85%
